Structures are written as SMILES.

The assay concerns the target T1, OsUGT79 (Oryza sativa, UniProt Q7XT97).
T1 construct: gene UGT79
T1 sequence (Q7XT97 1-466): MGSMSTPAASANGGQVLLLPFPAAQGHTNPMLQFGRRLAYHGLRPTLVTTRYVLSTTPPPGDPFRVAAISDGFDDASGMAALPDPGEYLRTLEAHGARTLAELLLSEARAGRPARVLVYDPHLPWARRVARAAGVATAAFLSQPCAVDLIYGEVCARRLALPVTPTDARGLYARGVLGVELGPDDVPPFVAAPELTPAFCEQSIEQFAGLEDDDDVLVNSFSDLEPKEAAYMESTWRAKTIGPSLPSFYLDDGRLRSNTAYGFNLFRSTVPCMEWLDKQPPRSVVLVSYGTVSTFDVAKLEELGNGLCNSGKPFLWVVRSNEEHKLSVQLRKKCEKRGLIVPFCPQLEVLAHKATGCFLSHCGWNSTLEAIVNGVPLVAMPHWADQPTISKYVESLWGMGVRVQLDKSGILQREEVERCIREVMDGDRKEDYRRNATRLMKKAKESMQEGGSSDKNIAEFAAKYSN
The experiment in a line: glucosylation assay of purified recombinant enzyme with HPLC-MS/MS ([…] DON/[…] UDP-glucose). The assay is classed as biochemical.

`O=c1ccn([C@@H]2O[C@H](COP(=O)(O)OP(=O)(O)O)[C@@H](O)[C@H]2O)c(=O)[nH]1` [UDP]: the IC50 (as a rule, the concentration that gives 50% inhibition) was around 1500 µM.

The values are drawn from article PMC4516937 (Toxins, 2015).
